Laboratory results: paper PMC9644403, “L-type Amino Acid Transporter 1 Utilizing Ferulic Acid Derivatives Show Increased Drug Delivery in the Mouse Pancreas Along with Decreased Lipid Peroxidation and Prostaglandin Production” (Molecular Pharmaceutics, 2022)

Test system: human umbilical vein endothelial cells (HUVECs)
Experiment: HUVEC viability, WST-1 assay
Assay type: cell-based
Settings: WST-1, 24 h
Experimental: As a third in vitro toxicity study in the human blood circulation system, the effects of FA, D1, and D2 on the viability of human umbilical vein endothelial cells (HUVECs; RRID CVCL_2959; Lonza, Italy; Cat. no. CC-2517) were determined using the WST-1 assay (Takara, Takara Bio Europe, Europe, Saint-Germain-en-Laye, France), according to the previously published protocol.[32] Briefly, the cells were cultured according to the manufacturer’s guidelines with the following ingredients: EGM-2-medium + bullet kit (Lonza, Clonetics, Italy), accutase (Sigma-Aldrich, Germany), and HEPES-buffered saline solution (Lonza, Basel, Switzerland). For the assay, the cells were seeded at the density of 7 500 HUVECs per well on 96-well plates and cultured for 24 h to obtain 70% confluency. Subsequently, the cells were treated with studied compounds in multiplicate (n = 6–8) at the concentration of 0.1–100 μM in the growth medium for 24 h (37 °C, 5% CO2). Cells with untreated growth medium represented 100% viability, whereas cells treated with medium containing 0.5% (v/v) methanol served as a negative control for drug solvent. After treating cells for 24 h, medium was removed, the cells were washed with the culture medium (100 μl/well), and 100 μL of WST-1 reagent dissolved in culture medium was added into each well. The plates were incubated at 37 °C with 5% CO2 for 2 h, after which absorbance values were measured at the 450 nm wavelength using a microplate reader (iMARK, Bio-Rad). Additionally, the effects of treatments on HUVEC morphology were examined microscopically using a phase-contrast Opta-Tech inverted microscope equipped with OptaView 7 software (Opta-Tech, Warsaw, Poland) for image analysis.

COc1cc(C=CC(=O)O)ccc1O [ferulic acid, 4-hydroxy-3-methoxycinnamic acid]
effect on HUVEC viability at 1–50 μM: no statistically significant effect
